Laboratory results from publication PMC7032255 (Asian Journal of Pharmaceutical Sciences, 2018).
Entries after “also recorded” stand apart in the source; their conditions may differ. Where two headings read alike, the source gives them in different places.

Experiments:
[1] = background value, no reference given; cited from earlier work
hPEPT1 = target: T1, hPEPT1 (Homo sapiens, UniProt P46059); experiment: Uptake by MDCK-hPEPT1 cells versus MDCK mock cells; assay type: cell-based; conditions: Fig. 6A
T1 sequence (P46059 1-708): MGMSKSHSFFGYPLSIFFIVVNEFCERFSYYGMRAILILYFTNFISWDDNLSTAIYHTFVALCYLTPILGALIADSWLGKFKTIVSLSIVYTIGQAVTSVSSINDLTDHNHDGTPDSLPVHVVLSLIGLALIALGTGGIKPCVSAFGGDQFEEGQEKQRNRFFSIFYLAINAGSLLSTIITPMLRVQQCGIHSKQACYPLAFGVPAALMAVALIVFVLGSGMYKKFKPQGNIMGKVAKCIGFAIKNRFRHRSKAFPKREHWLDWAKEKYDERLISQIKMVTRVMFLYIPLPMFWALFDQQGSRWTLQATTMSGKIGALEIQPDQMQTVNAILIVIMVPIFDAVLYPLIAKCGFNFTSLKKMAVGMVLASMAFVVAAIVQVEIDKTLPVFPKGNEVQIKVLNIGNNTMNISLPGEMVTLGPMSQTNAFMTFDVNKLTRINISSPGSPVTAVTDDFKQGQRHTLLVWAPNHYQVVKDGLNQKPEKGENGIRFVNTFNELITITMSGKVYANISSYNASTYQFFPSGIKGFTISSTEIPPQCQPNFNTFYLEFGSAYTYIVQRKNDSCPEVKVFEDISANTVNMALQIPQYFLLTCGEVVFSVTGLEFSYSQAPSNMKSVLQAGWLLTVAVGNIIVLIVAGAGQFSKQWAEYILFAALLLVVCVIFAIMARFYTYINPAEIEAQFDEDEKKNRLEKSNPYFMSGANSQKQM

[2] = cited from earlier work; for oral bioavailability of cytarabine: cytarabine versus its L-valyl prodrug valcytarabine
[3] = in human; parent drug versus its prodrug LY2140023; cited from earlier work
[4] = rat plasma, intravenous injection 8 mg/kg
[5] = rat plasma, oral administration, 160 mg/kg calculated as peramivir

CCC(CC)[C@H](NC(C)=O)[C@@H]1[C@H](O)[C@@H](C(=O)O)C[C@H]1N=C(N)N [Peramivir]
log P [1]: −1.4 | AUC0-∞ of peramivir [4]: 3.6048 µg·h/mL | t1/2 of peramivir [4]: 3.9 h | AUC0-∞ of peramivir [5]: 2.9559 µg·h/mL | Cmax of peramivir [5]: 0.7716 ± 0.2783 µg/mL | Tmax of peramivir [5]: 1.0 h | t1/2 of peramivir [5]: 3.2 h | F, absolute oral bioavailability of peramivir (rat, oral 160 mg/kg calculated as peramivir versus i.v. peramivir 8 mg/kg): 4.1% | PEPT1-mediated transport (uptake in MDCK-hPEPT1 versus mock cells) (hPEPT1): no PEPT1-mediated transport; also recorded: not (statistically) significant different between MDCK-hPEPT1 and MDCK mock cells | oral bioavailability ([2]; peramivir given orally, background value, reference not given): 3%

CC(C)C(N)C(=O)OCC1OC(n2ccc(N)nc2=O)C(O)C1O (centres unmarked) [valcytarabine]
oral bioavailability of cytarabine [2]: 60.0%

Nc1ccn([C@@H]2O[C@H](CO)[C@@H](O)[C@@H]2O)c(=O)n1 [cytarabine]
oral bioavailability of cytarabine [2]: 21.8%

N[C@@]1(C(=O)O)CS(=O)(=O)[C@H]2[C@H](C(=O)O)[C@H]21 [LY404039]
oral bioavailability of the parent drug LY404039 [3]: 6.0%

CSCC[C@H](N)C(=O)N[C@@]1(C(=O)O)CS(=O)(=O)[C@H]2[C@H](C(=O)O)[C@H]21 [LY2140023]
oral bioavailability of the parent drug LY404039 [3]: 68.0%
